Data set [1] can be described thus: Tmax in human at 5 mg, po. The format is ADME. The conditions noted are these: in vivo.
The test system of data set [2] is Homo sapiens. Description: Antidiabetic activity in human T2DM patients assessed as reduction in HbA1c level at 25 mg, po for 12 weeks relative to control. Also noted: scale not given: the % may be the effect or the level left. The class given is functional.
Data set [3] is described as follows: Toxicity in human T2DM patients assessed as reduction in systolic blood pressure at 5 mg, po for 4 weeks. The conditions noted are these: in vivo, 672 h. The format is organism-based.
Data set [4] in a line: Toxicity in human T2DM patients assessed as reduction in systolic blood pressure at 10 mg, po for 4 weeks. Particulars: in vivo, 672 h. The class given is organism-based.
Data set [5] can be described thus: Toxicity in human assessed as urinary tract infection at 200 to 400 mg, po for 52 weeks. The class given is organism-based. The conditions noted are these: in vivo, 8736 h.
Data set [6] is described as follows: Elimination half life in human at 1 to 25 mg, po. The class given is ADME. The conditions noted are these: in vivo, read-out: LambdaZ.
The test system of data set [7] is Homo sapiens. In words: Antidiabetic activity in human T2DM patients assessed as reduction in HbA1c level at 10 mg, po relative to control. Details: scale not given: the % may be the effect or the level left. The class given is functional.
The subject of data set [8] is Homo sapiens. Description: Antidiabetic activity in human T2DM patients assessed as reduction in HbA1c level at 25 mg, po relative to control. The class given is functional. Details: scale not given: the % may be the effect or the level left.
The test system of data set [9] is Homo sapiens. In words: Antidiabetic activity in human T2DM patients assessed as reduction in body weight at 10 to 25 mg, po. The format is functional.
The nature of data set [10]: Toxicity in human T2DM patients assessed as reduction in systolic blood pressure at 25 mg, po. The conditions noted are these: in vivo.
A short description of data set [11]: Toxicity in human T2DM patients assessed as reduction in diastolic blood pressure at 25 mg, po. The conditions noted are these: in vivo.
Data set [12] is described as follows: Half life in human. The format is ADME.
For data set [13], the system named is Homo sapiens. Description: Antidiabetic activity in human T2DM patients assessed as reduction in HbA1c level at 20 mg, po for 24 weeks relative to control. The format is functional. Also noted: scale not given: the % may be the effect or the level left.
The test system of data set [14] is Homo sapiens. In words: Antidiabetic activity in human T2DM patients assessed as reduction in body weight at 20 mg, po for 24 weeks. The format is functional.
The nature of data set [15]: Toxicity in human T2DM patients assessed as reduction in blood pressure at 20 mg, po for 24 weeks. The class given is organism-based. The conditions noted are these: in vivo, 4032 h.
Data set [16] relates to Homo sapiens. Description: Antidiabetic activity in human T2DM patients assessed as reduction in HbA1c level at 50 mg, po for 24 weeks relative to control. The class given is functional. Also noted: scale not given: the % may be the effect or the level left.
Data set [17] has as its system Homo sapiens. In words: Antidiabetic activity in human T2DM patients assessed as fasting blood glucose level at 50 mg, po for 24 weeks. The class given is functional.
The subject of data set [18] is Homo sapiens. In words: Antidiabetic activity in human T2DM patients assessed as reduction in body weight at 50 mg, po for 24 weeks. The format is functional.

Data on six compounds can be found in ChEMBL document CHEMBL4342422, “Synthetic strategy and SAR studies of C-glucoside heteroaryls as SGLT2 inhibitor: A review” (Eur J Med Chem, 2019).

SMILES strings stand for the structures.

For `CCOc1ccc(Cc2cc([C@]34OC[C@](CO)(O3)[C@@H](O)[C@H](O)[C@H]4O)ccc2Cl)cc1` [ERTUGLIFLOZIN], the Tmax in data set [1] stood at 1 h. Besides, the Activity in data set [2] is -0.72%; in [3], 2.59 to 2.86 mmHg; in data set [4], 2.59 to 2.86 mmHg.

As for `CCOc1ccc(Cc2cc([C@@H]3O[C@H](SC)[C@@H](O)[C@H](O)[C@H]3O)ccc2Cl)cc1` [SOTAGLIFLOZIN], the Activity in data set [5] fell in the range of 4.2 to 6.9%.

Take `CCOc1ccc(Cc2cc([C@@H]3S[C@H](CO)[C@@H](O)[C@H](O)[C@H]3O)c(OC)cc2C)cc1` [LUSEOGLIFLOZIN]: in data set [6], the half-life fell in the range of 9.2 to 13.8 h.

For the compound `OC[C@H]1O[C@@H](c2ccc(Cl)c(Cc3ccc(O[C@@H]4CCOC4)cc3)c2)[C@H](O)[C@@H](O)[C@@H]1O`, the Activity in [7] is 0.929%; in data set [8], 1.064%; in [9], 1.85 kg; in data set [10], 4.19 mmHg; in data set [11], -1.04 mmHg. The same compound showed a half-life in data set [12] of 1 h.

As to `CCc1ccc(Cc2ccc3c(c2)[C@]2(OC3)O[C@H](CO)[C@@H](O)[C@H](O)[C@H]2O)cc1` [TOFOGLIFLOZIN ANHYDROUS], the Activity in data set [13] was found to be 1.017%; in data set [14] it was 2.9 kg; in data set [15] it was 2.1 mmHg.

On to `OC[C@H]1O[C@@H](c2ccc(F)c(Cc3cc4ccccc4s3)c2)[C@H](O)[C@@H](O)[C@@H]1O` [IPRAGLIFLOZIN], for which the Activity in data set [16] came to 0.79%; in [17], 32.89 mg/dL; in data set [18], 1.1 kg.
